The target of the experiment is T1, progesterone receptor (PR) (Homo sapiens, UniProt P06401).
T1 construct: endogenous in cells; host or cells: T47D breast carcinoma cells
T1 sequence (P06401 1-933): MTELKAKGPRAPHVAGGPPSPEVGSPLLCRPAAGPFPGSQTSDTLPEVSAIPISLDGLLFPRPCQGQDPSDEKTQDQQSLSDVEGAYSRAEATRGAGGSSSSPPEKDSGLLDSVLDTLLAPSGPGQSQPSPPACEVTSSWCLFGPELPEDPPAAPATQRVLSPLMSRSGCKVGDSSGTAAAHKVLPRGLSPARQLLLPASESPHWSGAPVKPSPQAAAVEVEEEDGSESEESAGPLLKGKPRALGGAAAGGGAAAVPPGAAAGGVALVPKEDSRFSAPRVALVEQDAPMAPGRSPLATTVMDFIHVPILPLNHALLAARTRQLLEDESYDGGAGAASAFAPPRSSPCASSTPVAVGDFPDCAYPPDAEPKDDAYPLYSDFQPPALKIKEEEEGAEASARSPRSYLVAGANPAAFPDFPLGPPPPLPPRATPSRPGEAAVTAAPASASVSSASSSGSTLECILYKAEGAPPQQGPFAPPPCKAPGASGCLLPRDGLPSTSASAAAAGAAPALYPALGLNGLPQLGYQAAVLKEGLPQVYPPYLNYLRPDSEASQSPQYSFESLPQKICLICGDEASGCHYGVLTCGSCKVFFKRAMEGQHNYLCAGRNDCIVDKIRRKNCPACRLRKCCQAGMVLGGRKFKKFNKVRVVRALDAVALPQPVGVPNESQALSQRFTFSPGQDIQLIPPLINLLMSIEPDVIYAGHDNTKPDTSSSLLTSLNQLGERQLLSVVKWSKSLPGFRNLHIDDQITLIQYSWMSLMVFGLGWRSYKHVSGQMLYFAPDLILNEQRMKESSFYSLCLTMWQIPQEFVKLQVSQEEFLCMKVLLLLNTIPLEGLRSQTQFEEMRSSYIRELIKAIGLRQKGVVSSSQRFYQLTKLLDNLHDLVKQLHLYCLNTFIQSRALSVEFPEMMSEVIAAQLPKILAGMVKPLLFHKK
The experiment in a line: T47D alkaline phosphatase (AP) potency assay. The format is cell-based. The protocol: The method described by Di Lorenzo et al was followed with minor adaptation (Di Lorenzo et al., [1991]). In brief, T47D breast carcinoma cells were seeded in 96-well plates at 50,000 cell/well in RPMI medium supplemented with 10% FBS. After overnight culture, the medium was changed to RPMI phenol red free containing 2% charcoal-stripped FBS. After 24 h, the cells were treated with progesterone (Sigma Aldrich, Gillingham, UK) or the library compounds. Progesterone and the test compounds were dissolved in DMSO (100%) and diluted into treatment medium to give a final DMSO (v/v) concentration of 0.1%. After incubation (48 h) the treatment was finalised by twice washing the plates with PBS. Cells were lysed by two freeze-thaw cycles (− 80 °C). Cellular alkaline phosphatase activity was determined by adding Femto ELISA-AP substrate (200 μL) and optical density measurements taken at 5 and 10 min intervals at a wavelength of 405 nm. Data was interpreted using Graphpad Prism (GraphPad, CA, USA) using the model: dose-response simulation/inhibition, log(agonist/inhibition) vs. response – variable slope (four parameters). For compounds where EC50 > 10,000, an antagonist profile was assumed and the experiment was repeated with the inclusion of progesterone (3 mM) with the library compound. Data shown in the supporting information (Additional file 1: Figure S32).

For the compound `CC1(C)OC(=S)Nc2ccc(-c3cccnc3F)cc21` [Compound 2, 6-(2-fluoropyridin-3-yl)-4,4-dimethyl-1H-benzo[d][1,3]oxazine-2(4H)-thione], the EC50 – broadly, the concentration giving half of the maximal effect – (agonist response, 48 h incubation, average of at least n = 3 ± SD) amounted to 4.7 ± 0.07 nM. Further, the “fold more potent than structural isomer 4” value (compound 2 versus 4) is given as ~1000 fold.

The record behind these values is publication PMC6328429, “Synthesis of a benzoxazinthione derivative of tanaproget and pharmacological evaluation for PET imaging of PR expression” (EJNMMI Radiopharmacy and Chemistry, 2019).
